Measured values reported in patent US20240166617A1, “PHOSPHOINOSITIDE 3 KINASE BETA INHIBITORS AND COMPOSITIONS AND METHODS THEREOF” (Geode Therapeutics Inc., priority 2021, published 2024).
Read-outs that look alike come from different tables or passages of the source.

System: phosphorylation of AKT in HCC70 cells
Experiment: Cellular assay: phosphorylation of AKT in HCC70 cells (western blotting)
Format: cell-based
Conditions: Homo sapiens, HCC70, 1 h
Method: Cellular activity of PI3Kβ inhibitors was determined by quantifying the phosphorylation of AKT in HCC70 cells. AKT phosphorylated at Ser473 and Thr308 were measured using western blotting and specific primary antibodies from Cell Signaling (CST), Danvers, MA. On day 1, HCC70 cells (ATCC #CRL-2315) were seeded into Falcon 12-well cell Culture Plate (Corning #353043) at 100,000 cells per well, in 1 ml complete culture medium (RPMI-1640, GIBCO #11875093) containing 10% heat inactivated FBS (GIBCO #10438026), 1% Pen-Strep (GIBCO #15140122) and incubated at 37° AC, 5% CO2 overnight. On day 2, compound (500 nM) or DMSO (0.1%, Sigma Aldrich #8418) was added and cells were further incubated for 60 min at 37° AC, 5% CO2 in a total volume of 1 ml fresh medium.
At the end of the cell treatment period, media were removed by aspiration and adherent cells were lysed in 100 uL RIPA buffer (Sigma Aldrich #R0278). Equal volume (15 uL) of proteins was resolved by SDS-PAGE and transferred to PVDF (Millipore #IPFL00010) membrane for immunoblot analysis. Primary antibodies to the following proteins were used for immunoblotting: phosphor-AKT (Ser473) (CST #4060), phosphor-AKT (Thr308) (CST #2965), total AKT (CST #9272). Secondary goat anti-rabbit IgG fluorophore conjugated antibody (Invitrogen #A21109) was used to visualize the indicated proteins on an Odyssey CLx imaging system (Li-Cor). Quantification of band intensities was performed using Odyssey 3.0 software. Inhibition of Akt activity was calculated by band intensities using the formula: […]
Index was evaluated by % of AI. Data represent Index+(20˜60%), ++(60%˜80%), +++(80%˜90%), and ++++>90%.

[1] = HCC70 cells, compound 500 nM, 60 min, inhibition of Akt activity from band intensities, read-out: Index of AI (HCC70) p-AKT Thr 308
[2] = HCC70 cells, compound 500 nM, 60 min, inhibition of Akt activity from band intensities, read-out: Index of AI (HCC70) p-AKT ser 473

`CC(c1cc(C(=O)N(C)C)cc2c(=O)cc(N3CCOCC3)oc12)N1CCc2c(F)cc(F)cc21` (centres unmarked) [Compound 37, 8-(1-(4,6-difluoroindolin-1-yl)ethyl)-N,N-dimethyl-2-morpholino-4-oxo-4H-chromene-6-carboxamide] showed an inhibition at 0.5 µM [1] of 80 to 90% and an inhibition at 0.5 µM [2] of 80 to 90%.

With `C[C@H]1Cc2c(F)cccc2N1Cc1cc(C(=O)N(C)C)cc2c(=O)cc(N3CCOCC3)oc12` (single isomer, unassigned) [Compound 102] the inhibition at 0.5 µM [1] was greater than 90% and the inhibition at 0.5 µM [2] was greater than 90%.

`O=C(NC1CCOCC1)c1cc(CN2CCc3c(F)cc(F)cc32)c2oc(N3CCOCC3)cc(=O)c2c1` [Compound 83, 8-((4,6-difluoroindolin-1-yl)methyl)-2-morpholino-4-oxo-N-(tetrahydro-2H-pyran-4-yl)-4H-chromene-6-carboxamide] gave an inhibition at 0.5 µM [1] of 60 to 80% and an inhibition at 0.5 µM [2] of 60 to 80%.

Molecule `CC(C)NC(=O)c1cc(CN2CCc3c(F)cc(F)cc32)c2oc(N3CCOCC3)cc(=O)c2c1` [Compound 81, 8-((4,6-difluoroindolin-1-yl)methyl)-N-isopropyl-2-morpholino-4-oxo-4H-chromene-6-carboxamide] has an inhibition at 0.5 µM [1] of 60 to 80% and an inhibition at 0.5 µM [2] of 60 to 80%.

With `CN(C)C1CCN(C(=O)c2cc(CN3CCc4c(F)cc(F)cc43)c3oc(N4CCOCC4)cc(=O)c3c2)C1` (centres unmarked) [Compound 43, 8-((4,6-difluoroindolin-1-yl)methyl)-6-(3-(dimethylamino)pyrrolidine-1-carbonyl)-2-morpholino-4H-chromen-4-one] the inhibition at 0.5 µM [1] was 80 to 90% and the inhibition at 0.5 µM [2] was 80 to 90%.

In the case of `C#Cc1cc(CNc2cc(F)cc(F)c2)c2oc(N3CCOCC3)cc(=O)c2c1` [Compound 5, 8-(((3,5-difluorophenyl)amino)methyl)-6-ethynyl-2-morpholino-4H-chromen-4-one], the inhibition at 0.5 µM (read-out: Index of AI (HCC70) p-AKT Thr 308) is reported as 60 to 80% and the inhibition at 0.5 µM (read-out: Index of AI (HCC70) p-AKT ser 473) is reported as 60 to 80%.

Molecule `CC(=O)Nc1cc(CNc2cc(F)cc(F)c2)c2oc(N3CCOCC3)cc(=O)c2c1` [Compound 8, N-(8-(((3,5-difluorophenyl)amino)methyl)-2-morpholino-4-oxo-4H-chromen-6-yl)acetamide] has an inhibition at 0.5 µM [1] of 60 to 80% and an inhibition at 0.5 µM [2] of 60 to 80%.

`CC1(C#N)CN(C(=O)c2cc(CN3CCc4c(F)cc(F)cc43)c3oc(N4CCOCC4)cc(=O)c3c2)C1` [Compound 88, 1-(8-((4,6-difluoroindolin-1-yl)methyl)-2-morpholino-4-oxo-4H-chromene-6-carbonyl)-3-methylazetidine-3-carbonitrile] was tested, and the inhibition at 0.5 µM [1] was 60 to 80% and the inhibition at 0.5 µM [2] was 60 to 80%.

For `CN(C)C(=O)c1cc(CN2CCc3c(Cl)ccc(F)c32)c2nc(N3CCOCC3)cc(=O)n2c1` [Compound 100, 9-((4-chloro-7-fluoroindolin-1-yl)methyl)-N,N-dimethyl-2-morpholino-4-oxo-4H-pyrido[1,2-a]pyrimidine-7-carboxamide], the inhibition at 0.5 µM [1] was 80 to 90% and the inhibition at 0.5 µM [2] was 80 to 90%.

Molecule `CN(C)CCN(C)C(=O)c1cc(CN2CCc3c(F)cc(F)cc32)c2oc(N3CCOCC3)cc(=O)c2c1` [Compound 40, 8-((4,6-difluoroindolin-1-yl)methyl)-N-(2-(dimethylamino)ethyl)-N-methyl-2-morpholino-4-oxo-4H-chromene-6-carboxamide] has an inhibition at 0.5 µM [1] greater than 90% and an inhibition at 0.5 µM [2] greater than 90%.

Molecule `Cc1cc(CN2c3cc(F)cc(F)c3CC2C)c2nc(N3CCOCC3)cc(=O)n2c1` (centres unmarked) [Compound 55, 9-((4,6-difluoro-2-methylindolin-1-yl)methyl)-7-methyl-2-morpholino-4H-pyrido[1,2-a]pyrimidin-4-one] has an inhibition at 0.5 µM [1] of 20 to 60% and an inhibition at 0.5 µM [2] of 20 to 60%.

Work on `CN(C)c1cc(CNc2cc(F)cc(F)c2)c2oc(N3CCOCC3)cc(=O)c2c1` [Compound 2, 8-(((3,5-difluorophenyl)amino)methyl)-6-(dimethylamino)-2-morpholino-4H-chromen-4-one] yielded an inhibition at 0.5 µM [1] of 60 to 80% and an inhibition at 0.5 µM [2] of 60 to 80%.

With `CN(C)C(=O)Nc1cc(CNc2cc(F)cc(F)c2)c2oc(N3CCOCC3)cc(=O)c2c1` [Compound 7, 3-(8-(((3,5-difluorophenyl)amino)methyl)-2-morpholino-4-oxo-4H-chromen-6-yl)-1,1-dimethylurea] the inhibition at 0.5 µM [1] was 60 to 80% and the inhibition at 0.5 µM [2] was 60 to 80%.
